Test results taken from PMC5504357, “Antifungal Potential of Copper(II), Manganese(II) and Silver(I) 1,10-Phenanthroline Chelates Against Multidrug-Resistant Fungal Species Forming the Candida haemulonii Complex: Impact on the Planktonic and Biofilm Lifestyles” (Frontiers in Microbiology, 2017).

What was measured:
[1] = system: Candida haemulonii var. vulnera; assay: Planktonic growth, broth microdilution (CLSI M27-A3), MIC; type: cell-based; settings: for GM-MIC: geometric mean of three C. haemulonii var. vulnera isolates; for MIC: planktonic, 48 h, 37°C
Method in brief: (§1)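 Clinical isolates (nail, blood, urine) grown 48 h at 37°C in Sabouraud-dextrose, then tested by CLSI M27-A3 broth microdilution in RPMI 1640 over 0.0625-32 mg/L, 48 h at 37°C. MIC is the lowest concentration with no visible growth; geometric mean MIC calculated across all isolates.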

Candida haemulonii [2] = assay: as above; type: cell-based; settings: for GM-MIC: geometric mean of three C. haemulonii isolates; for MIC: planktonic, 48 h, 37°C
Method in brief: as §1

Candida duobushaemulonii [3] = assay: as above; type: cell-based; settings: for GM-MIC: geometric mean of three C. duobushaemulonii isolates; for MIC: planktonic, 48 h, 37°C
Method in brief: as §1

A549 cells = assay: Mammalian cell toxicity (MTT assay) and selectivity index; type: cell-based, Human; settings: MTT, 48 h incubation
Method in brief: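 A549 cells were exposed to compounds (0.0313–512 μg/mL) in DMEM for 48 h at 37 °C, 5% CO2. Viability was measured by MTT (3 h, dark), with formazan dissolved in DMSO and read at 450 nm. CC50 was derived, and SI calculated as A549 CC50 divided by C. haemulonii complex GM-MIC.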

C. haemulonii complex = assay: Planktonic growth, overall across all nine isolates; type: cell-based, Candida haemulonii complex; settings: geometric mean across all nine strains; for MIC: in μM, read-out: Overall GM-MIC
Method in brief: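 CLSI M27-A3 microdilution, RPMI 1640, 0.0625-32 mg/L; compounds from DMSO, metal salts and phen in water; 37°C, 48 h; MIC = no visible growth. Overall value: GM-MIC over nine isolates.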

[4] = system: Candida haemulonii complex; assay: Biofilm-growing cells, overall across isolates; type: cell-based; settings: for Overall GM-bMIC: geometric mean across strains, values marked * do not include LIP Ch4 (>512); for decrease in activity on going from planktonic to biofilm cells: biofilm MIC versus planktonic MIC
Method: (§2) The effect of the compounds on biofilm-growing cells was determined using the previously described microtiter-based technique (Ramage et al., [2001]). The fungi (10^6 yeast cells) were incubated for 48 h at 37°C in 96-well polystyrene microtiter plates (Corning®, Corning Incorporated, USA) containing Sabouraud-dextrose broth to accommodate biofilm formation. Following biofilm formation, the culture medium was aspirated and non-adherent cells removed by thoroughly washing the wells three times with sterile PBS (0.15 M NaCl, 0.01 M phosphate buffer, pH 7.2). Afterwards, the compounds, at the same concentrations used in the planktonic assays, were added to the wells, and the plates were incubated for further 48 h at 37°C. The metabolic activity was then evaluated using a colorimetric assay that measures the metabolic reduction of 2,3-bis (2-methoxy-4-nitro-5-sulfophenyl)-5-[(phenylamino) carbonyl]-2H-tetrazolium hydroxide (XTT; Sigma-Aldrich) to a water-soluble, brown formazan product (Peeters et al., [2008]). The biofilm MIC (bMIC) for each compound was established as the minimal concentration capable of inhibiting 50% of metabolic activity when compared to compound-free wells (Ziccardi et al., [2015]).

[5] = system: Candida haemulonii var. vulnera; assay: Biofilm-growing cells, XTT assay, bMIC; type: cell-based; settings: for GM-bMIC: geometric mean, C. haemulonii var. vulnera isolates; for bMIC: mature biofilm, 48 h, 50% inhibition of metabolic activity
Method: as §2

Candida haemulonii [6] = assay: Biofilm-growing cells, XTT assay, bMIC; type: cell-based; settings: for GM-bMIC: geometric mean, C. haemulonii isolates, values marked * do not include LIP Ch4 (>512); for bMIC: mature biofilm, 48 h, 50% inhibition of metabolic activity
Method: as §2

Candida duobushaemulonii [7] = assay: Biofilm-growing cells, XTT assay, bMIC; type: cell-based; settings: for GM-bMIC: geometric mean, C. duobushaemulonii isolates; for bMIC: mature biofilm, 48 h, 50% inhibition of metabolic activity
Method: as §2

SMILES: O.O.O.O.O.O.O=C([O-])CCCCCCC(=O)[O-].O=C([O-])CCCCCCC(=O)[O-].O=C([O-])CCCCCCC(=O)[O-].O=C([O-])CCCCCCC(=O)[O-].[Mn+2].[Mn+2].[Mn+2].[Mn+2].c1cnc2c(c1)ccc1cccnc12.c1cnc2c(c1)ccc1cccnc12.c1cnc2c(c1)ccc1cccnc12.c1cnc2c(c1)ccc1cccnc12.c1cnc2c(c1)ccc1cccnc12.c1cnc2c(c1)ccc1cccnc12.c1cnc2c(c1)ccc1cccnc12.c1cnc2c(c1)ccc1cccnc12 [compound 13, [Mn2(oda)(phen)4(H2O)2][Mn2(oda)(phen)4(oda)2].4H2O]
- GM-MIC [1]: 2 µg/mL
- MIC ([1]; isolate LIP Ch5): 2 µg/mL
- MIC ([1]; isolate LIP Ch9): 2 µg/mL
- MIC ([1]; isolate LIP Ch11): 2 µg/mL
- GM-MIC (Candida haemulonii [2]): 2 µg/mL
- MIC (Candida haemulonii [2]; isolate LIP Ch4): 2 µg/mL
- MIC (Candida haemulonii [2]; isolate LIP Ch7): 2 µg/mL
- MIC (Candida haemulonii [2]; isolate LIP Ch12): 2 µg/mL
- GM-MIC (Candida duobushaemulonii [3]): 2.52 µg/mL
- MIC (Candida duobushaemulonii [3]; isolate LIP Ch1): 2 µg/mL
- MIC (Candida duobushaemulonii [3]; isolate LIP Ch6): 4 µg/mL
- MIC (Candida duobushaemulonii [3]; isolate LIP Ch8): 2 µg/mL
- A549 (CC50) (A549 cells): >512 µg/mL
- Overall GM-MIC (C. haemulonii complex): 2.16 µg/mL
- MIC (C. haemulonii complex): 0.87 µM
- Overall GM-bMIC [4]: 8.72 mg/L
- GM-bMIC [5]: 8 mg/L
- bMIC ([5]; isolate LIP Ch5): 16 mg/L
- bMIC ([5]; isolate LIP Ch9): 4 mg/L
- bMIC ([5]; isolate LIP Ch13): 8 mg/L
- GM-bMIC (Candida haemulonii [6]): 22.63^* mg/L
- bMIC (Candida haemulonii [6]; isolate LIP Ch4): >512 mg/L
- bMIC (Candida haemulonii [6]; isolate LIP Ch7): 32 mg/L
- bMIC (Candida haemulonii [6]; isolate LIP Ch14): 16 mg/L
- GM-bMIC (Candida duobushaemulonii [7]): 5.04 mg/L
- bMIC (Candida duobushaemulonii [7]; isolate LIP Ch1): 4 mg/L
- bMIC (Candida duobushaemulonii [7]; isolate LIP Ch6): 4 mg/L
- bMIC (Candida duobushaemulonii [7]; isolate LIP Ch8): 8 mg/L

SMILES: O=C1C(=O)c2cccnc2-c2ncccc21.O=C1C(=O)c2cccnc2-c2ncccc21.[Ag+].[O-][Cl+3]([O-])([O-])[O-] [compound 15, [Ag(phendione)2]ClO4]
- GM-MIC [1]: 1.26 µg/mL
- MIC ([1]; isolate LIP Ch5): 2 µg/mL
- MIC ([1]; isolate LIP Ch9): 1 µg/mL
- MIC ([1]; isolate LIP Ch11): 1 µg/mL
- GM-MIC (Candida haemulonii [2]): 1 µg/mL
- MIC (Candida haemulonii [2]; isolate LIP Ch4): 1 µg/mL
- MIC (Candida haemulonii [2]; isolate LIP Ch7): 1 µg/mL
- MIC (Candida haemulonii [2]; isolate LIP Ch12): 1 µg/mL
- GM-MIC (Candida duobushaemulonii [3]): 2 µg/mL
- MIC (Candida duobushaemulonii [3]; isolate LIP Ch1): 2 µg/mL
- MIC (Candida duobushaemulonii [3]; isolate LIP Ch6): 2 µg/mL
- MIC (Candida duobushaemulonii [3]; isolate LIP Ch8): 2 µg/mL
- A549 (CC50) (A549 cells): 3.76 µg/mL
- Overall GM-MIC (C. haemulonii complex): 1.36 µg/mL
- MIC (C. haemulonii complex): 2.16 µM
- decrease in activity on going from planktonic to biofilm cells [4]: 11.8 fold
- Overall GM-bMIC ([4]; in μM): 25.48 µM
- Overall GM-bMIC [4]: 16 mg/L
- GM-bMIC [5]: 32 mg/L
- bMIC ([5]; isolate LIP Ch5): 32 mg/L
- bMIC ([5]; isolate LIP Ch9): 32 mg/L
- bMIC ([5]; isolate LIP Ch13): 32 mg/L
- GM-bMIC (Candida haemulonii [6]): 11.31^* mg/L
- bMIC (Candida haemulonii [6]; isolate LIP Ch4): >512 mg/L
- bMIC (Candida haemulonii [6]; isolate LIP Ch7): 8 mg/L
- bMIC (Candida haemulonii [6]; isolate LIP Ch14): 16 mg/L
- GM-bMIC (Candida duobushaemulonii [7]): 10.08 mg/L
- bMIC (Candida duobushaemulonii [7]; isolate LIP Ch1): 8 mg/L
- bMIC (Candida duobushaemulonii [7]; isolate LIP Ch6): 32 mg/L
- bMIC (Candida duobushaemulonii [7]; isolate LIP Ch8): 4 mg/L

SMILES: [Ag+].[O-][Cl+3]([O-])([O-])[O-].c1cnc2c(c1)ccc1cccnc12.c1cnc2c(c1)ccc1cccnc12 [compound 17, [Ag(phen)2]ClO4]
- GM-MIC [1]: 0.63 µg/mL
- MIC ([1]; isolate LIP Ch5): 1 µg/mL
- MIC ([1]; isolate LIP Ch9): 0.5 µg/mL
- MIC ([1]; isolate LIP Ch11): 0.5 µg/mL
- GM-MIC (Candida haemulonii [2]): 1 µg/mL
- MIC (Candida haemulonii [2]; isolate LIP Ch4): 1 µg/mL
- MIC (Candida haemulonii [2]; isolate LIP Ch7): 1 µg/mL
- MIC (Candida haemulonii [2]; isolate LIP Ch12): 1 µg/mL
- GM-MIC (Candida duobushaemulonii [3]): 1.59 µg/mL
- MIC (Candida duobushaemulonii [3]; isolate LIP Ch1): 2 µg/mL
- MIC (Candida duobushaemulonii [3]; isolate LIP Ch6): 1 µg/mL
- MIC (Candida duobushaemulonii [3]; isolate LIP Ch8): 2 µg/mL
- A549 (CC50) (A549 cells): 2.07 µg/mL
- Overall GM-MIC (C. haemulonii complex): 1 µg/mL
- MIC (C. haemulonii complex): 1.76 µM
- decrease in activity on going from planktonic to biofilm cells [4]: 12.3 fold
- Overall GM-bMIC ([4]; in μM): 21.73 µM
- Overall GM-bMIC [4]: 12.34 mg/L
- GM-bMIC [5]: 8 mg/L
- bMIC ([5]; isolate LIP Ch9): 0.5 mg/L
- bMIC ([5]; isolate LIP Ch13): 8 mg/L
- GM-bMIC (Candida haemulonii [6]): 20.16 mg/L
- bMIC (Candida haemulonii [6]; isolate LIP Ch4): 32 mg/L
- bMIC (Candida haemulonii [6]; isolate LIP Ch7): 32 mg/L
- bMIC (Candida haemulonii [6]; isolate LIP Ch14): 8 mg/L
- GM-bMIC (Candida duobushaemulonii [7]): 10.08 mg/L
- bMIC (Candida duobushaemulonii [7]; isolate LIP Ch1): 16 mg/L
